Laboratory results from PMC7287031 (Pharmacology Research & Perspectives, 2020).
Where two headings read alike, the source gives them in different places.

Legend:
[1] = Rat pharmacokinetic studies: plasma PK of ribociclib after single i.v. or oral dose; format: in vivo; conditions: for Vd: read-out: Vss; for half-life: read-out: t½ (converted)
Experimental: ADME studies (including QWBA in pigmented and non‐pigmented rats) using radiolabeled ribociclib were conducted in rat and dog. Relevant institutional and national guides for the care and use of laboratory animals were followed. […]

[2] = Dog ADME study: excretion, mass balance, metabolite profiling with radiolabeled ribociclib; format: in vivo
Experimental: ADME studies (including QWBA in pigmented and non‐pigmented rats) using radiolabeled ribociclib were conducted in rat and dog. Relevant institutional and national guides for the care and use of laboratory animals were followed.
Metabolite profiling was conducted on plasma, urine, bile, and feces samples in the rat and dog ADME studies, and further metabolite profiling on plasma and milk was conducted in a dedicated rat milk excretion study.
Plasma samples obtained from these studies were extracted with equal volumes of acetonitrile. Additional extractions of the protein pellet with acetonitrile and/or acetone were conducted as needed to maximize radioactivity recovery. Feces samples were initially extracted with two to four volumes of acetonitrile. Additional extractions of the pellet following centrifugation and removal of supernatant were conducted with acetonitrile and/or acetone as needed to maximize radioactivity recovery. Urine and bile samples were analyzed directly following centrifugation. Radioactivity recoveries following the centrifugation step were measured by LSC. Milk samples were extracted with two volumes of acetonitrile, following centrifugation and removal of supernatant, the pellets were re‐suspended in 100 µL of water and re‐extracted with 200 µL acetonitrile.
Metabolite profiling in the ADME studies was conducted using liquid chromatography‐mass spectrometry. Radioactivity profiles were generated by diversion of the majority of the post‐column flow into 96‐well yttrium silicate scintillation‐coated plates (Deepwell Lumaplates; Perkin Elmer Life and Analytical Sciences Inc), by means of Gilson FC204 fraction collectors (Gilson). Metabolites were identified by mass spectrometry (Waters QTOF operating under MassLynx 4.1) and, where feasible, by comparison with authentic reference standards.

CYP3A5 = target: T1, CYP3A5 (Homo sapiens, UniProt P20815); assay: Enzyme kinetics with recombinant CYP3A5 and scaling to HLM; format: in vitro ADME
T1 construct: purchased BD Biosciences
T1 sequence (P20815 whole entry): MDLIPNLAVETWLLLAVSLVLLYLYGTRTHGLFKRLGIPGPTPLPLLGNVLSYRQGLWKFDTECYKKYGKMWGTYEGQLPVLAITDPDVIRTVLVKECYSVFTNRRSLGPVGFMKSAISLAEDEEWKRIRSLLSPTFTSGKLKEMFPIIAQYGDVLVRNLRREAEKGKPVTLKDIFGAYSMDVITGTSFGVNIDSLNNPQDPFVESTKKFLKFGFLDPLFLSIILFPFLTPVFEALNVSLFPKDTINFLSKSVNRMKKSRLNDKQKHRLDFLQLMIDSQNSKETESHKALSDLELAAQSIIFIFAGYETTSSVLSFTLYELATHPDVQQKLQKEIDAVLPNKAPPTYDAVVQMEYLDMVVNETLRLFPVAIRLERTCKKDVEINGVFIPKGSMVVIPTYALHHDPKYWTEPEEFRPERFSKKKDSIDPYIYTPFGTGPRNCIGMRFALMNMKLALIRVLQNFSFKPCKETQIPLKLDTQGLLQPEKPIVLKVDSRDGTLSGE
Experimental: In vitro incubations were carried out in 100‐mM potassium phosphate buffer (pH 7.4) and 5‐mM MgCl2 with a total volume of 200 µL. Substrate and either human liver microsomes (HLM, BD Biosciences, mixed gender pool of n = 50) or recombinant human enzymes (BD Biosciences) were added and pre‐incubated for 3 minutes at 37°C. The reaction was started by addition of a fresh solution of NADPH (1 mmol/L final concentration). The samples were incubated at 37°C with agitation of 500 rpm. For incubations with CYP2A6, CYP2C9, CYP2C18, and CYP4A11, the phosphate buffer was replaced by TRIS buffer (100 mmol/L, pH 7.4) and for flavin‐containing monooxygenases (FMOs), a glycine buffer (50 mM, pH 9.5) was used.
The enzymatic reaction was stopped and the protein was precipitated by addition of an equal volume of methanol. After 30 min at −80°C, the samples were centrifuged at 30'000 x g for 15 min. The supernatant was withdrawn. Aliquots were analyzed by LSC and the supernatant was diluted with water to obtain a final solution containing less than 20% of the organic solvent. For samples of low substrate concentration, supernatants were evaporated to dryness under nitrogen, then re‐suspended in water containing less than 20% of methanol. Samples were analyzed by HPLC combined with radiodetection. […]

[3] = Human ADME study: total radioactivity PK in blood and plasma (AMS); format: in vivo; conditions: single oral 600 mg [14C] ribociclib, N=6
Experimental: Subjects continued to fast for 4 hours after drug administration. […] Urine was collected from 0‐6, 6‐12, and 12‐24 h post dose, then over 24‐hour intervals until 504 hours post dose. Feces was collected over 24‐h intervals until 504 hours post dose, during which time the volunteers were confined to the clinic. Vomitus was also scheduled to be collected for 12 hours post dosing. However, no volunteers vomited during the study. […] Electrostatics Corporation 1.5SDH Compact AMS System (Middleton) in the bioanalytical laboratory of Accium BioSciences, Seattle, WA, USA. A known aliquot of each blood and plasma specimen was transferred to a prebaked quartz tube. […] An AMS batch consisted of unknown specimens and chemical blank(s) to monitor for any in‐process contamination. The samples were then dried using vacuum centrifugation and submitted to graphitization. Graphitization consisted of combustion of samples followed by reduction to graphite according to published methods. ^12 Briefly, approximately 200‐mg copper oxide was added to each combustion tube containing the dried sample residue. The combustion tubes were flame‐sealed under vacuum and combusted at approximately 900°C to form carbon dioxide (CO2). Combusted samples were then attached to a disposable transfer system connected to a septa‐sealed vial. […]

[4] = female, Hanover Wistar, iv, rat f (3), i.v., 4.2 mg base/kg
[5] = female, rat f (3), po, 11.1 mg base/kg
[6] = female, rat f (4), po, 51.2 mg base/kg
[7] = male, Hanover Wistar, rat m (3), po, 9.8 mg base/kg
[8] = male, Sprague Dawley, 5 mg/kg, rat m (3), po, 5.0 mg base/kg
[9] = male, Sprague Dawley, iv, 2 mg/kg, rat m (2), i.v., 2.0 mg base/kg
[10] = oral dosing of radiolabeled ribociclib

Molecule `CN(C)C(=O)c1cc2cnc(Nc3ccc(N4CCNCC4)cn3)nc2n1C1CCCC1` [ribociclib, Ribociclib] has a Vd [1, 4] of 12.2 L/kg, a half-life [1, 4] of 1.9 h and an AUC(0-t) ([1]; female, Hanover Wistar, rat, iv, 4.2 mg base/kg) of 508 ng·h/mL. It also gave a clearance ([1]; female, iv, rat f (3), 4.2 mg base/kg) of 130 mL/min/kg, a Cmax [1, 5] of 59.1 ng/mL and a Tmax [1, 5] of 2 h. The AUC(0-t) ([1]; female, rat f (3), po, 11.1 mg base/kg, AUC interval 24 h) was 360 ng·h/mL, the Cmax [1, 6] was 1090 ng/mL and the Tmax [1, 6] was 0.3 h. For the same molecule, the half-life [1, 6] was 2 h, the AUC(0-t) ([1]; female, rat, po, 51.2 mg base/kg) was 3100 ng·h/mL and the clearance ([1]; male, Hanover Wistar, iv, rat m (3), 4.1 mg base/kg) was 46.7 mL/min/kg. It also gave a half-life ([1]; male, Hanover Wistar, iv, rat m (3), i.v., 4.1 mg base/kg) of 3.2 h, a Cmax [1, 7] of 130 ng/mL and a Tmax [1, 7] of 4 h. The AUC(0-t) ([1]; male, Hanover Wistar, rat m (3), po, 9.8 mg base/kg, AUC interval 24 h) was 1340 ng·h/mL, the AUC(0-t) ([1]; male, Hanover Wistar, rat, iv, 4.1 mg base/kg) was 1440 ng·h/mL and the Cmax [1, 8] was 126 ng/mL. The Tmax [1, 8] was 2 h, the bioavailability [1, 8] was 55% and the Vd [1, 9] was 9.9 L/kg. For the same molecule, the half-life [1, 9] was 2.8 h, the AUC(0-t) ([1]; male, Sprague Dawley, rat, iv, 2 mg/kg) was 587 ng·h/mL and the AUC(0-t) ([1]; male, Sprague Dawley, rat, po, 5 mg/kg) was 672 ng·h/mL. For the same molecule, the clearance ([1]; male, iv, rat m (2), 2.0 mg base/kg) was 51.7 mL/min/kg, the Vd ([1]; male, iv, rat m (3), i.v., 4.1 mg base/kg) was 7.9 L/kg and the bioavailability ([1]; male, rat m (3), po, 9.8 mg base/kg) was 37%. The “Recovery of radioactivity in mass balance study” value [2] was “approximately 90%”, the “radioactivity found in feces” value [2, 10] was 68.8% and the “radioactivity found in urine” value [2, 10] was 18.5%. The ribociclib in feces ([2]; p.o.) was 10.7 % of the oral dose, the “unchanged ribociclib in urine” value ([2]; p.o.) was 13.4 % of the dose and the “fm,CYP” value (CYP3A5; CYP3A5, share of total CYP-mediated metabolism in HLM) was 1.2%. The fumic (CYP3A5; CYP3A5 incubation) was 0.87, the “tlast of total radioactivity, median” value ([3]; human blood) was 504 h and the “tlast of total radioactivity, median” value ([3]; human plasma) was 504 h.
